From PMC8252724 (2021)

Experiments:
[1] = tested on: c-Myc (Pu22) (DNA, G4) TGAGGGTGGGTAGGGTGGGTAA; test: thiazole orange displacement (FID); conditions: 140 mM KCl, 20 mM Na cacodylate; pH 7, RT, 10% DMSO; 0.5 μM TO displaced, 0.5 μM DNA
[2] = tested on: c-Myc (Pu22) (DNA, G4) TGAGGGTGGGTAGGGTGGGTAA; test: 1H NMR; conditions: 70 mM KCl, 25 mM KPi; pH 7, 298 K, 10% DMSO-d6, 0.1 mM DNA
[3] = tested on: FAM-Pu22 (DNA, G4) TGAGGGTGGGTAGGGTGGGTAA; test: fluorescence intensity titration of labelled DNA; conditions: 150 mM KCl; 10 mM Tris-HCl, pH 7.4, RT, 2-3% DMSO, 50 nM DNA
[4] = tested on: FAM-Pu22 (DNA, G4) TGAGGGTGGGTAGGGTGGGTAA; test: microscale thermophoresis; conditions: 150 mM KCl; 10 mM Tris-HCl, pH 7.4
[5] = tested on: dsDNA 24bp (FAM-duplex) (DNA, duplex) CGCGAATTCGCGCGCGAATTCGCG; test: microscale thermophoresis; conditions: 150 mM KCl; 10 mM Tris-HCl, pH 7.4
[6] = tested on: c-Myc (Pu22) (DNA, G4) TGAGGGTGGGTAGGGTGGGTAA; test: 1H NMR titration; conditions: 70 mM KCl, 25 mM KPi; pH 7, 298 K, 10% DMSO-d6, 0.1 mM DNA

NCCNCCNCCNCCNCc1c[nH]c2ncccc12
DC50 FID [1]: 16.63 ± 1.93 µM

Cn1ccc2cc(N)ccc21
binding [2]: weak | K D FAM [3]: 6.30 ± 0.63 µM | K D MST [4]: 2.32 ± 0.41 µM | DC50 FID [1]: 3.71 ± 0.32 µM

O=[N+]([O-])c1ccc2[nH]cc(CNCCN3CCCC3)c2c1
binding [2]: yes | K D FAM [3]: 7.53 ± 0.93 µM | K D MST [4]: 5.52 ± 0.61 µM | DC50 FID [1]: 6.81 ± 0.9 µM

O=[N+]([O-])c1ccc2c(ccn2CCCN2CCCC2)c1
binding [2]: yes | K D FAM [3]: 2.43 ± 0.29 µM | Kd [5]: 38.1 ± 2.39 µM | K D MST [4]: 1.49 ± 0.12 µM | DC50 FID [1]: 5.01 ± 0.15 µM

CN(C)Cc1c[nH]c2ccc([N+](=O)[O-])cc12
K D FAM [3]: 15.21 ± 1.93 µM | K D MST [4]: 13.22 ± 0.80 µM | DC50 FID [1]: 19.11 ± 0.88 µM

c1cc2c(cc1CNCCN1CCCC1)OCO2
DC50 FID [1]: 16.11 ± 1.33 µM

Nc1ccc2c(ccn2CCCN2CCCC2)c1
K D FAM [3]: 7.12 ± 0.45 µM | Kd [5]: 18.0 ± 1.33 µM | K D MST [4]: 2.86 ± 0.33 µM | DC50 FID [1]: 6.31 ± 0.43 µM

NCCNCCNCCNCCNCc1ccc2c(c1)OCO2
DC50 FID [1]: 18.11 ± 1.69 µM

NCCNCCNCCNCCNCc1n[nH]c2ccccc12
DC50 FID [1]: 15.63 ± 1.08 µM

Cc1cc2cc(N)ccc2n1C
K D FAM [3]: 12.32 ± 0.94 µM | K D MST [4]: 17.18 ± 0.54 µM | DC50 FID [1]: 14.53 ± 0.61 µM

c1ccc2c(c1)ccn2CCCN1CCCC1
K D FAM [3]: 16.87 ± 1.58 µM | K D MST [4]: 15.11 ± 0.30 µM | DC50 FID [1]: 19.12 ± .92 µM

O=[N+]([O-])c1ccc2c(c1)c(CNCCN1CCCC1)cn2CCCN1CCCC1
K D FAM [3]: 2.81 ± 0.37 µM | Kd [5]: 32.3 ± 1.69 µM | binding [6]: yes | K D MST [4]: 1.30 ± 0.21 µM | DC50 FID [1]: 3.30 ± 0.86 µM

CN(C)Cc1c[nH]c2ccc(N)cc12
binding [2]: weak | K D FAM [3]: 6.29 ± 0.71 µM | K D MST [4]: 2.21 ± 0.89 µM | DC50 FID [1]: 3.83 ± 0.11 µM
